We go through one molecule from US8883852B2, “Radioprotective agents” (University of Pittburgh—Of the Commonwealth System of …, priority 2008, dated 2014).

Molecules are shown by their SMILES. “Also recorded” adds a separate entry of the source.

The subject of one data set is C57BL/6NHsd female mice. As to the kind of experiment: In vivo irradiation survival curves, total body irradiation. Further details: species or system mouse. An excerpt:
Other groups of mice were control mice, or vehicle only irradiated mice.
The mice were followed for the development of irradiation induced damage to the hematopoietic system which occurs within the first 30 days after irradiation (FIG. 7).

In a further data set the test system is HeLa cells. The experiment in a line: Irradiation-induced cell death, cell-based assay. Further details: species or system human. As to conditions: γ-irradiated (10 or 25 Gy), data not shown. The procedure:
(§1) Cells were cultured in fresh medium prior to irradiation and were γ-irradiated with a Shepherd model 143-45A irradiator (J. L. Shepherd & Associates, CA) at a dose rate of 4 Gy/min. Cells were incubated with drugs at the indicated concentrations 1 h before or 30 min after irradiation. Cell viability was determined using phosphatidylserine (PS) externalization/propidium iodide (PI) permeabilization assay or LDH Assay after 72 h post-irradiation incubation.
(§2) Cells were exposed to γ-irradiation at different doses (10 or 25 Gy) based on their radiosensitivity. […] The mechanisms responsible for the differences in glyburide response are not known but are worthy of further investigation.

The subject of the next data set is H1299 cells. As to the kind of experiment: Irradiation-induced cell death, cell-based assay. Further details: species or system human. The note with it: γ-irradiated (10 or 25 Gy), data not shown. The procedure:
as §1, §2

The next data set concerns KM101 cells. The experiment in a line: Irradiation-induced cell death, cell-based assay. Further details: species or system human. The note with it: γ-irradiated (10 or 25 Gy), data not shown. The method, then: as §1, §2
The subject of a further data set is 32D cl 3 cells. The experiment in a line: In vitro irradiation survival curves (clonogenic survival assay). Format: cell-based, mouse. The method, then:
The cells were irradiated with doses ranging from 0 to 8 Gy. The 32D cl 3 cells were plated in methycellulose, incubated at 37° C. for one week at which time colonies of greater than 50 cells were counted (Epperly, M. W. et al. Mitochondrial localization of superoxide dismutase is required for decreasing radiation induced cell damage. Radiat. Res. 160, 568-578 (2003) and Epperly, M. W. et al. Ethyl pyruvate, a potentially effective total body irradiation damage mitigator. Radiat. Res. 168, 552-559 (2007)). The data were analyzed using linear quadratic and single-hit, multi-target models (Id.).

The subject of the next data set is BEAS-2B cells. The experiment in a line: Irradiation-induced cell death, flow cytometry. Format: cell-based, human. As to conditions: 1-h prior to irradiation (10 Gy). The procedure:
as §1
(§3) After 72 h post-irradiation incubation, attached cells were harvested by trypsinization and pooled with detached cells from supernatant. Harvested cells were then stained with annexin-V-FITC and PI for 5 min in the dark prior to flow cytometry analysis (FACscan, Becton-Dickinson, Rutherford, N.J.). Cell debris was gated out by forward and side scatter under the same conditions, and a minimum of 10,000 gated cells were acquired. Percentages of annexin-V-positive cells were calculated by combining annexin V+/PI− (early apoptotic) and annexin V+/PI+ (late apoptotic or necrotic) cells.
as §2
Background: A flow cytometer gives signals particle by particle.

A further data set deals with U-87 MG cells. The experiment in a line: Irradiation-induced cell death, flow cytometry. The note with it: 1-h prior to irradiation (10 Gy). Format: cell-based, human. The method, then:
as §1, §3, §2

The subject of another data set is T98G cells. The experiment in a line: Irradiation-induced cell death, PS externalization/PI permeabilization by flow cytometry. The note with it: for irradiation induced cell death (PS externalization/PI permeability): drug 1-h prior to 25 Gy γ-irradiation, glyburide 12.5-200 μM, 72 h post-irradiation. Format: cell-based, human. The procedure: as §1, §3
In the present study, we selected 10 chemicals that targeted 13 candidate siRNA gene transcripts for further study (Table 3). The radioprotective effects of the compounds were tested in T98G cells, which were initially used in the siRNA screen. […] The other nine chemicals lacked any obvious protective effect on γ-irradiation induced cell death under the current experimental conditions (FIG. 4A).

Another data set has as its system human primary astrocytes. As to the kind of experiment: Irradiation-induced cell death, LDH release assay. As to conditions: 50 and 100 μM, 1-h prior to irradiation (25 Gy). Format: cell-based. The procedure: as §1
For human primary astrocytes, cell viability was determined by assaying the medium from each sample for LDH activity according to the manufacturer's instructions (Sigma). The enzyme activity from the culture medium and floating cells were used as an index of cell death. To determine total LDH activity, the adherent cells were lysed in 0.5% Triton X-100 and assayed for LDH activity, this cell-associated LDH activity was then added to the LDH activity in the removed culture medium. The amount of LDH present in the medium was calculated as a percentage of the total, which was used to calculate the percent cell death in the corresponding samples.
as §2
A general note: LDH leaks from cells whose membrane has failed.

Data set [1] is described as follows: Hypoglycemia at the dose of glyburide used in the present study. Type of data set: in vivo.

`COc1ccc(Cl)cc1C(=O)NCCc1ccc(S(=O)(=O)NC(=O)NC2CCCCC2)cc1` [glyburide, 5-chloro-N-[2-[4-(cyclohexylcarbamoylsulfamoyl)phenyl]ethyl]-2-methoxy-benzamide]: the “survival compared to irradiated controls” value in the data set on C57BL/6NHsd female mice (5 mg/kg i.p. 10 min after 9.5 Gy total body irradiation) was “no significant increase in survival; also recorded: not protected from irradiation”. For the same molecule, in the data set on C57BL/6NHsd female mice (5 mg/kg i.p. 10 min before 9.5 Gy total body irradiation, P=0.04), the “survival compared to irradiated controls and vehicle only” value is “significantly increased survival; also recorded: protected as seen by an increase in survival; also recorded: increased the survival rate”. The results for the mice survived in the data set on C57BL/6NHsd female mice (5 mg/kg intraperitoneal 10 min before 9.5 Gy total body irradiation) and with C57BL/6NHsd female mice (glyburide injected 10-min after 9.5 Gy total body irradiation) were 60% and 44%, respectively. For the same molecule, the radioprotection entry in the data set with HeLa cells is on record as “no protective effect; also recorded: only limited protection”; in the data set on H1299 cells it was “no protective effect; also recorded: only limited protection”; in the data set with KM101 cells, “no protective effect; also recorded: only limited protection”; in the data set with BEAS-2B cells, “effective radioprotection”; in the data set with BEAS-2B cells (listed as Glyburide) it was “effectively relieved irradiation induced cell death”; in the data set on U-87 MG cells, “effective radioprotection”. For the same molecule, the radioprotection entry in the data set with U-87 MG cells (listed as Glyburide) was “effectively relieved irradiation induced cell death”; in the data set on human primary astrocytes, “effective radioprotection”; in the data set with human primary astrocytes (listed as Glyburide) it was “effectively relieved irradiation induced cell death”. The “n or shoulder on the irradiation survival curve” value in the data set with 32D cl 3 cells (10 μM in methylcellulose following irradiation (0-8 Gy)) stood at 2.5±0.9. In addition, the “survival of 32D cl 3 cells” value in the data set on 32D cl 3 cells (10 μM, 1-h before irradiation (0-8 Gy)) is listed as “significantly increased the survival”. Moreover, in the data set on T98G cells (200 μM, 1-h prior to 5-25 Gy), the “protection over a range of irradiation exposure” value is “effectively protected cells”. The “irradiation induced apoptosis, post-irradiation treatment” value with T98G cells (added 30-min after γ-irradiation (25 Gy)) is on record as “protected cells from irradiation induced apoptosis to a similar extent”. Besides, the “irradiation induced cell death (PS externalization/PI permeability)” value in the data set with T98G cells was “attenuated irradiation induced cell death in a concentration-dependent manner; also recorded: demonstrated radioprotective effect”; in the data set with T98G cells (listed as Glyburide) it was “effectively relieved irradiation induced cell death”. The hypoglycemia entry in data set [1] is recorded as “did not cause hypoglycemia”.
